Structures can show the parent of a compound that is named as a salt.
Columns and labels:
Assay type in all cases: physicochemical
[1] = pMDI formulation, particle fraction distribution on NGI stages; details: stage 5 cut-off 1.36 μm
Experimental: Both samples were produced in a similar manner to sample 2 of Example 2. Sample 1 was prepared from atomization of a 3% solution of fluticasone propionate in 20% dichloromethane in methanol (3 g in 100 ml) and Sample 5 was prepared from atomization of 3% solution in acetone (3 g in 100 ml). […] The FPF values were 11.80% and 13.80% on stage 5 for samples 5 and 1 respectively compared with 6.20% for micronized material.

[2] = Respirable fraction / FPF by Next Generation Impactor (general summary); details: particles of the present invention vs prior art
From the text: The particle size distribution of the aerosol formulations according to the invention may be measured by conventional techniques, for example by using a Next Generation Impactor (NGI) with pre-separator for example by cascade impaction or by the “Twin Impinger” analytical process. As used herein reference to the “Twin Impinger” assay means “Determination of the deposition of the emitted dose in pressurised inhalations using apparatus A” as defined in British Pharmacopoeia 1988, pages A204-207, Appendix XVII C. Such methods involve filling the pre-separator with HPLC mobile phase and the cups of the NGI cups were coated with 1% v/v silicone oil in hexane to eliminate particle bounce. […] The mass of drug deposited on each part of the NGI can then be determined by HPLC. The FPD determined represents the mass of drug collected on stages 3-8 of the NGI. The FPF emitted dose is also determined. The aerosolisation efficiency as determined by percentage fine particle fraction (% FPF) or respirable fraction is also assessed.
Such techniques enable the “respirable fraction” of the aerosol formulations to be calculated. As used herein reference to “respirable fraction” means the amount of active ingredient collected in the lower chamber in the NGI per actuation expressed as a percentage of the total amount of active ingredient delivered per actuation using the method described above. […]

[3] = Aerosolisation efficiency of binary DPI formulations (0.4% w/w FP in lactose), NGI via Rotahaler; details: optimal particles
Experimental: The aerosolization efficiency of samples 2, 3 and 4 of engineered FP were evaluated using binary formulations containing 0.4% w/w FP.
Each binary formulation contained 0.016 g FP and 3.984 g lactose (ML001, DMV-Fonterra, Vehgel, Netherlands) and was prepared by geometric mixing. Following this, the blend was subsequently prepared using a Turbula T2F (Willy A Bachofen A G, Basel, Switzerland) at 46 rpm for 45 minutes.
Following content uniformity testing, 12.5±1 mg of each blend was loaded into size 3 hydroxypropylmethyl cellulose capsules (HPMC, Shionogi Qualicaps S A, Basingstoke, UK). The capsules were stored at 44% RH for 24 h prior to in vitro performance testing.
Testing was performed using a Next Generation Impactor (NGI) with pre-separator, which was connected to a vacuum pump (GE Motors). Prior to testing, the pre-separator was filled with 15 ml of mobile phase and the cups of the NGI cups were coated with 1% v/v silicone oil in hexane to eliminate particle bounce.
For each experiment, four individual capsules of the same formulation were discharged into the NGI at 60 Lpm for 4 s via a Rotahaler (GSK, Ware, UK) DPI device. Additionally, blisters from a Flixotide Diskus (GSK, Ware, UK) were emptied and loaded into size 3 HPMS capsules and discharged into a NGI at 60 Lpm1 for 4 s via a Rotahaler. Following aerosolization, the NGI apparatus was dismantled and the inhaler, capsules and each part of the NGI was washed down into known volumes of HPLC mobile phase.
The mass of drug deposited on each part of the NGI was determined by HPLC. This protocol was repeated three times for each blend, following which, the mass median aerodynamic diameter (MMAD), geometric standard deviation (GSD), fine particle dose (FPD) and fine particle fraction of the emitted dose (FPFED) were determined. The FPD represented the mass of drug that was collected on stages 3-8 of the NGI.

**Q.** Which “FPF on stage 5 of the NGI” value [1] does the source give for `CCC(=O)O[C@]1(C(=O)SCF)[C@H](C)C[C@H]2[C@@H]3C[C@H](F)C4=CC(=O)C=C[C@]4(C)[C@@]3(F)[C@@H](O)C[C@@]21C` [Sample 5, fluticasone propionate] here?
**A.** 11.80%

**Q.** For `CC(Cc1ccc(O)cc1)NCC(O)c1cc(O)cc(O)c1` (stereo not drawn) [Fenoterol hydrobromide], which “increase in FPF compared to the prior art” value [2] is on record?
**A.** 30-50%

**Q.** Which “FPF greater than micronized/milled” value [3] does the source give for `CCC(=O)O[C@]1(C(=O)SCF)[C@H](C)C[C@H]2[C@@H]3C[C@H](F)C4=CC(=O)C=C[C@]4(C)[C@@]3(F)[C@@H](O)C[C@@]21C` [fluticasone propionate] here?
**A.** 54%

**Q.** What about the “FPF greater than precipitated material” value [3] of the same molecule?
**A.** over 200%

**Q.** And the “increase in FPF compared to the prior art” value [2]?
**A.** 50-60%

**Q.** For `CCC(=O)O[C@]1(C(=O)SCF)[C@H](C)C[C@H]2[C@@H]3C[C@H](F)C4=CC(=O)C=C[C@]4(C)[C@@]3(F)[C@@H](O)C[C@@]21C` [Sample 1, fluticasone propionate], which “FPF on stage 5 of the NGI” value [1] is on record?
**A.** 13.80%
